Experiments:
MOLM-13 = assay: Antiproliferative activity against human MOLM-13 cells assessed as cell growth inhibition incubated for 7 days by WST-8 assay; format: functional, cell-based; conditions: MOLM-13, 168 h
MV4-11 = assay: Antiproliferative activity against human MV4-11 cells assessed as cell growth inhibition incubated for 10 days by WST-8 assay; format: functional, cell-based; conditions: MV4-11, 240 h
[1] = biological target: Lysine-specific histone demethylase 1A (Homo sapiens, UniProt O60341); assay: Inhibition of human recombinant LSD1 expressed in Escherichia coli using H3K4me2 peptide as substrate incubated for 60 mins by AlphaLISA assay
NCI-H1417 = assay: Antiproliferative activity against human NCI-H1417 cells assessed as cell growth inhibition incubated for 10 days by WST-8 assay; format: functional, cell-based; conditions: NCI-H1417, 240 h
[2] = Microsomal stability in mouse liver microsome assessed as half life measured upto 60 mins by LC-MS/MS analysis; format: ADME; conditions: liver microsomes
[3] = Microsomal stability in dog liver microsome assessed as half life measured upto 60 mins by LC-MS/MS analysis; format: ADME, Canis lupus familiaris; conditions: liver microsomes
[4] = Microsomal stability in rat liver microsome assessed as half life measured upto 60 mins by LC-MS/MS analysis; format: ADME; conditions: liver microsomes
[5] = Microsomal stability in human liver microsome assessed as half life measured upto 60 mins by LC-MS/MS analysis; format: ADME; conditions: liver microsomes

For `Cc1ccc(-c2ncc(OC[C@@H]3CCNC3)cc2-c2ccc(C#N)cc2)cc1`, the IC50 (MOLM-13) was 613 nM, the IC50 (MV4-11) was 122 nM and the IC50 [1] was 130 nM. The IC50 (NCI-H1417) was 213 nM.
`CC(C)c1ccc(-c2ncc3c(ccn3CC3CCNCC3)c2-c2ccc(C#N)cc2)cc1` gave an IC50 [1] of 46.1 nM.
In the case of `Cn1ncc2cc(-c3ncc4c(ccn4CC4CCNCC4)c3-c3ccc(C(N)=O)cc3)ccc21`, the IC50 [1] is reported as 6250 nM.
With `COC(C)(C)c1ccc(-c2ncc3c(ccn3CC3CCNCC3)c2-c2ccc(C#N)cc2)cc1` the IC50 [1] was 16.5 nM.
With `CN(C)c1ccc(-c2ncc3c(ccn3CC3CCNCC3)c2-c2ccc(C#N)cc2)cc1` the IC50 [1] was 9.4 nM.
For `CCC1(Cn2ccc3c(-c4ccc(C#N)cc4)c(-c4ccc5c(cnn5C)c4)ncc32)CCNCC1`, the IC50 [1] was 121 nM.
`Cc1cc(-c2c(-c3ccc4c(cnn4C)c3)ncc3c2ccn3CC2CCNCC2)ccc1C#N` gave an IC50 [1] of 156 nM.
Molecule `Cn1ncc2cc(-c3ncc4c(ccn4CC4CCNCC4)c3-c3ccc(C#N)cc3F)ccc21` has an IC50 [1] of 17.5 nM.
`Cn1ccc2cc(-c3ncc4c(ccn4CC4CCNCC4)c3-c3ccc(C#N)cc3)cnc21` showed an IC50 [1] of 5.1 nM.
For `COC(=O)Nc1ccc(-c2ncc3c(ccn3CC3CCNCC3)c2-c2ccc(C#N)cc2)cc1`, the IC50 [1] was 53.8 nM.
`CN1CCOc2cc(-c3ncc4c(ccn4CC4CCNCC4)c3-c3ccc(C#N)c(F)c3)ccc21` gave a half-life [2] of under 10 min, a half-life [3] of 37 min and a half-life [4] of 42 min. The IC50 (MOLM-13) was 58 nM, the IC50 (MV4-11) was 1.7 nM and the IC50 [1] was 4.3 nM. For the same molecule, the IC50 (NCI-H1417) was 2.7 nM and the half-life [5] was under 10 min.
Molecule `CC(C)(O)c1ccc(-c2ncc3c(ccn3CC3CCNCC3)c2-c2ccc(C#N)cc2)cc1` has an IC50 [1] of 21.1 nM.
`Cc1ccc(-c2ncc3c(ccn3CC3CCNCC3)c2-c2ccc(C#N)cc2)cc1` gave an IC50 [1] of 34.5 nM.
`Cn1ccc2cc(-c3ncc4c(ccn4CC4CCNCC4)c3-c3ccc(C#N)cc3)ccc21` showed an IC50 [1] of 6.5 nM.
Molecule `Cn1cnc2cc(-c3ncc4c(ccn4CC4CCNCC4)c3-c3ccc(C#N)cc3)ccc21` has an IC50 [1] of 15.4 nM.
`C=C(C)c1ccc(-c2ncc3c(ccn3CC3CCNCC3)c2-c2ccc(C#N)cc2)cc1` gave an IC50 [1] of 58.5 nM.
Molecule `Cn1cc(-c2ncc3c(ccn3CC3CCNCC3)c2-c2ccc(C#N)cc2)cn1` has an IC50 [1] of over 1000 nM.
Molecule `CS(=O)(=O)c1ccc(-c2ncc3c(ccn3CC3CCNCC3)c2-c2ccc(C#N)cc2)cc1` has an IC50 [1] of 146 nM.
In the case of `Cn1ncc2cc(-c3ncc4c(ccn4CC4CCNCC4)c3-c3ccc(C#N)cc3)ccc21`, the IC50 (MOLM-13) is reported as 62 nM, the IC50 (MV4-11) is reported as 4.1 nM and the IC50 [1] is reported as 12.9 nM. It also gave an IC50 (NCI-H1417) of 11 nM.
Molecule `Cn1ncc2cc(-c3ncc4c(ccn4CC4(C)CCNCC4)c3-c3ccc(C#N)cc3)ccc21` has an IC50 (MOLM-13) of 126 nM, an IC50 (MV4-11) of 3.2 nM and an IC50 [1] of 4.3 nM. For the same molecule, the IC50 (NCI-H1417) was 5.7 nM.
Work on `CN1CCOc2cc(-c3ncc4c(ccn4CC4(C)CCNCC4)c3-c3ccc(C#N)c(F)c3)ccc21` yielded a half-life [2] of under 10 min, a half-life [3] of 35 min and a half-life [4] of 36 min. The IC50 (MOLM-13) was 182 nM, the IC50 (MV4-11) was 0.7 nM and the IC50 [1] was 1.4 nM. The IC50 (NCI-H1417) was 2.3 nM and the half-life [5] was under 10 min.
Work on `CN1CCOc2cc(-c3ncc4c(ccn4CC4(C)CCNCC4)c3-c3ccc(C#N)cc3)ccc21` yielded an IC50 (MOLM-13) of 130 nM, an IC50 (MV4-11) of 1.5 nM and an IC50 [1] of 1.3 nM. It also gave an IC50 (NCI-H1417) of 3.7 nM.
`CNCCCn1ccc2c(-c3ccc(C#N)cc3)c(-c3ccc4c(cnn4C)c3)ncc21` gave an IC50 [1] of 42.8 nM.
`N#Cc1ccc(-c2c(-c3ccc4[nH]ncc4c3)ncc3c2ccn3CC2CCNCC2)cc1` gave an IC50 [1] of 94.3 nM.
Molecule `N#Cc1ccc(-c2c(-c3ccc(N)cc3)ncc3c2ccn3CC2CCNCC2)cc1` has an IC50 [1] of 354 nM.
`Cn1ncc2cc(-c3ncc4c(ccn4C[C@@H]4CCCNC4)c3-c3ccc(C#N)c(F)c3)ccc21` gave an IC50 [1] of 3.5 nM.
For `Cc1ccc(-c2ncc3c(ccn3CC3CCNCC3)c2-c2ccc(C#N)cc2)cc1C`, the IC50 [1] was 24.3 nM.
In the case of `CNC1CCC(Cn2ccc3c(-c4ccc(C#N)c(F)c4)c(-c4ccc5c(cnn5C)c4)ncc32)CC1` (stereo not drawn), the IC50 [1] is reported as 229 nM.
Work on `Cn1ncc2cc(-c3ncc4c(ccn4Cc4cccnc4)c3-c3ccc(C#N)c(F)c3)ccc21` yielded an IC50 [1] of over 10000 nM.
In the case of `CN1CCOc2cc(-c3ncc4c(ccn4CC4CCNCC4)c3-c3ccc(C#N)cc3)ccc21`, the IC50 (MOLM-13) is reported as 170 nM, the IC50 (MV4-11) is reported as 2.9 nM and the IC50 [1] is reported as 4.6 nM. For the same molecule, the IC50 (NCI-H1417) was 9.3 nM.
With `Cn1ncc2cc(-c3ncc4c(ccn4CCCCN)c3-c3ccc(C#N)cc3)ccc21` the IC50 [1] was 12.4 nM.
`Cc1ccc(-c2ncc3c(ccn3CC3CCNCC3)c2-c2ccc(C#N)cc2)cn1` showed an IC50 [1] of 69.8 nM.
Work on `CC(C)(C)c1ccc(-c2ncc3c(ccn3CC3CCNCC3)c2-c2ccc(C#N)cc2)cc1` yielded an IC50 [1] of 47.9 nM.
`Cn1ncc2cc(-c3ncc4c(ccn4C[C@@H]4CCNC4)c3-c3ccc(C#N)c(F)c3)ccc21` gave a half-life [2] of over 60 min, a half-life [3] of over 60 min and a half-life [4] of over 60 min. It also gave an IC50 [1] of 3.7 nM and a half-life [5] of over 60 min.
With `Cn1ncc2cc(-c3ncc4[nH]ccc4c3-c3ccc(C#N)cc3)ccc21` the IC50 [1] was 3710 nM.
`Cn1ncc2cc(-c3ncc4c(ccn4CC4(C)CCNCC4)c3-c3ccc(C#N)c(F)c3)ccc21` gave a half-life [2] of over 60 min, a half-life [3] of over 60 min and a half-life [4] of over 60 min. It also gave an IC50 (MOLM-13) of 31 nM, an IC50 (MV4-11) of 0.6 nM and an IC50 [1] of 3.1 nM. The IC50 (NCI-H1417) was 1.1 nM and the half-life [5] was over 60 min.
Molecule `Cn1ncc2cc(-c3ncc4c(ccn4CC4CCNCC4)c3-c3ccc(C#N)c(F)c3)ccc21` has a half-life [2] of over 60 min, a half-life [3] of over 60 min and a half-life [4] of over 60 min. For the same molecule, the IC50 (MOLM-13) was 316 nM, the IC50 (MV4-11) was 2.7 nM and the IC50 [1] was 3.9 nM. For the same molecule, the IC50 (NCI-H1417) was 7.3 nM and the half-life [5] was over 60 min.
In the case of `Cc1cc(C#N)ccc1-c1c(-c2ccc3c(cnn3C)c2)ncc2c1ccn2CC1CCNCC1`, the IC50 [1] is reported as 215 nM.
With `Cc1ccc(-c2ncc3c(ccn3C[C@@H]3CCNC3)c2-c2ccc(C#N)cc2)cc1` the IC50 [1] was 80 nM.
Molecule `Cn1ncc2cc(-c3ncc4c(ccn4Cc4c[nH]cn4)c3-c3ccc(C#N)c(F)c3)ccc21` has an IC50 [1] of over 10000 nM.
`C/C(=N\NC(=O)c1cccc(S(=O)(=O)N2CCN(C)CC2)c1)c1cc(Cl)ccc1O` [SECLIDEMSTAT] showed an IC50 [1] of 26.2 nM.

From ChEMBL document CHEMBL5365548, “Discovery of Pyrrolo[2,3-c]pyridines as Potent and Reversible LSD1 Inhibitors” (ACS Med Chem Lett, 2023)
